From PMC8242589, “Cardiac Safety of Kinase Inhibitors – Improving Understanding and Prediction of Liabilities in Drug Discovery Using Human Stem Cell-Derived Models” (Frontiers in Cardiovascular Medicine, 2021)
“Also recorded” adds a separate entry of the source.

Assays:
[1] = system: ROCK1; conditions: ref [36] (RKI-1447), [37], [38] (Fasudil), [39]–[43] (Y-27632), [44], [45] (GSK-429286); read-out: Target IC50 ROCK1; cited from earlier work
[2] = system: hSC-CMs (Cor.4U Cardiomyocytes); assay: Apoptosis assay (CellEvent Caspase-3/7 Green, IncuCyte ZOOM kinetics over 24 h); assay type: cell-based, human; set-up: key to Caspase / Caspase MEAN: % of time-matched vehicle control (green object area); conditions: for Caspase: normalized to time-matched vehicle control; for Apoptosis (caspase-3/7 activity) at the highest test concentration, in words: top / highest test concentration, over 24 h
Summary of the method: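 Cor.4U cardiomyocytes were cultured 4 days at 5% CO2 and 37 °C, given a 2 h baseline, then treated with compound for 24 h. Caspase-3/7 green nuclear signal was imaged every 2 h, and total green object area per well (μm^2/well) was normalized to the time-matched vehicle control. At least three replicates were run per concentration.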

[3] = system: ROCK2; conditions: ref [36] (RKI-1447), [37], [38] (Fasudil), [39]–[43] (Y-27632), [44], [45] (GSK-429286); read-out: Target IC50 ROCK2; cited from earlier work
[4] = system: hSC-CMs (Cor.4U Cardiomyocytes); assay: CardioExcyte 96 impedance and EFP recording (beating rate, base impedance); assay type: cell-based, human; conditions: for BR / Base Imp: vs baseline before drug (taken as 100%)
Summary of the method: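 hSC-CM monolayers (Cor.4U), cultured 4 days at 37 °C, 5% CO2, recorded spontaneously beating; impedance sampled at 1 kHz, EFP at 10 kHz. Beating rate taken as reciprocal of inter-spike interval in EFP. Each test concentration expressed as fractional change versus pre-drug baseline (100%).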

[5] = system: hSC-CMs (Cor.4U Cardiomyocytes); assay: ATP assay (CellTiter-Glo Luminescent Cell Viability Assay); assay type: cell-based, human; conditions: normalized to time-matched DMSO control
Summary of the method: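 Human stem-cell-derived Cor.4U cardiomyocytes (25,000–30,000/well), cultured 4 days at 37 °C, switched to serum-free BMCC medium 12 h before dosing. Cellular ATP quantified by CellTiter-Glo luminescence and normalized to time-matched DMSO controls; at least three replicates per concentration.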

With `CC1=C(C(=O)Nc2cc3cn[nH]c3cc2F)C(c2ccc(C(F)(F)F)cc2)CC(=O)N1` (stereo not shown) [GSK-429286] as the compound, how does the IC50 [1] read?
Its IC50 is 14 nM.

And the Caspase ([2]; 0.01 µM, 2h)?
The Caspase was 95.

And the Caspase ([2]; 0.01 µM, 24h)?
The Caspase was 97.

What about the Caspase ([2]; 0.1 µM, 2h) of the same compound?
Its Caspase is 109.

And the Caspase ([2]; 0.1 µM, 24h)?
The Caspase was 103.

What about the Caspase ([2]; 1 µM, 2h) of the same compound?
The Caspase was 104.

And the Caspase ([2]; 1 µM, 24h)?
Its Caspase is 105.

What about the Caspase ([2]; 10 µM, 2h) of the same compound?
The Caspase was 116.

What about the Caspase ([2]; 10 µM, 24h) of the same compound?
The Caspase was 127.

What about the “Apoptosis (caspase-3/7 activity) at the highest test concentration, in words” value [2] of the same compound?
Its value is “marginal effects”.

What about the IC50 [3] of the same compound?
The IC50 was 63 nM.

And the BR ([4]; 0.01 µM, 2h)?
Its BR is 102.

And the “Base Imp” value ([4]; 0.01 µM, 2h)?
Its value is 99.

And the BR ([4]; 0.01 µM, 24h)?
The BR was 100.

What about the “Base Imp” value ([4]; 0.01 µM, 24h) of the same compound?
Its value is 92.

And the BR ([4]; 0.1 µM, 2h)?
The BR was 102.

And the “Base Imp” value ([4]; 0.1 µM, 2h)?
Its value is 91.

And the BR ([4]; 0.1 µM, 24h)?
Its BR is 106.

And the “Base Imp” value ([4]; 0.1 µM, 24h)?
Its value is 85.

What about the BR ([4]; 1 µM, 2h) of the same compound?
The BR was 105.

And the “Base Imp” value ([4]; 1 µM, 2h)?
The value was 83.

And the BR ([4]; 1 µM, 24h)?
Its BR is 109.

What about the “Base Imp” value ([4]; 1 µM, 24h) of the same compound?
The value was 72.

And the BR ([4]; 10 µM, 2h)?
The BR was 98.

What about the “Base Imp” value ([4]; 10 µM, 2h) of the same compound?
The value was 69.

What about the BR ([4]; 10 µM, 24h) of the same compound?
Its BR is 88.

What about the “Base Imp” value ([4]; 10 µM, 24h) of the same compound?
Its value is 58.

What about the “Effect on base impedance, in words” value ([4]; hSC-CMs, 2 and 24 h) of the same compound?
Its value is “concentration-and time-dependent decrease in base impedance; also recorded: concentration-dependent effects”.

What about the ATP ([5]; 0.01 µM, 2h) of the same compound?
Its ATP is 101.

What about the ATP ([5]; 0.01 µM, 24h) of the same compound?
The ATP was 101.

And the ATP ([5]; 0.1 µM, 2h)?
Its ATP is 101.

And the ATP ([5]; 0.1 µM, 24h)?
Its ATP is 96.

And the ATP ([5]; 1 µM, 2h)?
The ATP was 102.

What about the ATP ([5]; 1 µM, 24h) of the same compound?
The ATP was 96.

And the ATP ([5]; 10 µM, 2h)?
Its ATP is 104.

What about the ATP ([5]; 10 µM, 24h) of the same compound?
The ATP was 102.

For `C[C@@H](N)C1CCC(C(=O)Nc2ccncc2)CC1.Cl.Cl` (stereo partly shown) [Y-27632], which Caspase ([2]; 0.3 µM, 2h) is on record?
The Caspase was 119.

What about the Caspase ([2]; 0.3 µM, 24h) of the same compound?
The Caspase was 94.

What about the Caspase ([2]; 3 µM, 2h) of the same compound?
The Caspase was 163.

What about the Caspase ([2]; 3 µM, 24h) of the same compound?
Its Caspase is 129.

What about the Caspase ([2]; 30 µM, 2h) of the same compound?
The Caspase was 104.

What about the Caspase ([2]; 30 µM, 24h) of the same compound?
The Caspase was 163.

And the Caspase ([2]; 300 µM, 2h)?
The Caspase was 96.

And the Caspase ([2]; 300 µM, 24h)?
Its Caspase is 306.

What about the “Time of notable raise in the caspase-3/7 activity” value ([2]; highest test concentrations only) of the same compound?
The value was 12 to 18 h.

What about the “Apoptosis (caspase-3/7 activity) at the highest test concentration, in words” value [2] of the same compound?
The value was “slow initial phase followed by a notable raise in the caspase-3/7 activity”.

And the IC50 [3]?
Its IC50 is 89 nM.

What about the “Effect on beating rate, in words” value [4] of the same compound?
The value was “reduced cardiomyocyte beating at both 2 h and 24 h time points”.

And the BR ([4]; 0.3 µM, 2h)?
Its BR is 101.

And the “Base Imp” value ([4]; 0.3 µM, 2h)?
The value was 89.

And the BR ([4]; 0.3 µM, 24h)?
Its BR is 95.

What about the “Base Imp” value ([4]; 0.3 µM, 24h) of the same compound?
Its value is 88.

And the BR ([4]; 3 µM, 2h)?
Its BR is 99.

What about the “Base Imp” value ([4]; 3 µM, 2h) of the same compound?
The value was 89.

What about the BR ([4]; 3 µM, 24h) of the same compound?
Its BR is 100.

And the “Base Imp” value ([4]; 3 µM, 24h)?
Its value is 85.

And the BR ([4]; 30 µM, 2h)?
Its BR is 99.

What about the “Base Imp” value ([4]; 30 µM, 2h) of the same compound?
Its value is 80.

What about the BR ([4]; 30 µM, 24h) of the same compound?
The BR was 101.

What about the “Base Imp” value ([4]; 30 µM, 24h) of the same compound?
Its value is 67.

And the BR ([4]; 300 µM, 2h)?
The BR was 76.

And the “Base Imp” value ([4]; 300 µM, 2h)?
Its value is 61.

And the BR ([4]; 300 µM, 24h)?
The BR was 68.

What about the “Base Imp” value ([4]; 300 µM, 24h) of the same compound?
The value was 54.

And the “Secondary beats at 300 uM, MEAN” value ([4]; 300 uM, unlabelled side calculation under the 24h data)?
The value was 103.939.

And the ATP ([5]; 0.3 µM, 2h)?
The ATP was 105.

What about the ATP ([5]; 0.3 µM, 24h) of the same compound?
Its ATP is 100.

And the ATP ([5]; 3 µM, 2h)?
Its ATP is 102.

What about the ATP ([5]; 3 µM, 24h) of the same compound?
The ATP was 101.

And the ATP ([5]; 30 µM, 2h)?
The ATP was 103.

What about the ATP ([5]; 30 µM, 24h) of the same compound?
Its ATP is 103.

And the ATP ([5]; 300 µM, 2h)?
The ATP was 109.

What about the ATP ([5]; 300 µM, 24h) of the same compound?
Its ATP is 104.
